Source: PMC8151276, “An Integrated Approach toward NanoBRET Tracers for Analysis of GPCR Ligand Engagement” (Molecules, 2021)

Target: T1, GCGR (Homo sapiens, UniProt P47871)
T1 construct: purchased Promega (in-house HiBiT-GPCR construct library, NanoBRET)
Assay: NanoBRET screen HiBiT-GCGR in HEK293
Assay type: binding
Conditions: 0.1μM tracer
Method: (§1) Each tracer candidate was screened across the entire library of HiBiT-GPCR constructs using NanoBRET as the detection modality. As depicted in Figure 4A, the specificity of interactions was evaluated through decrease in BRET due to competitive displacement of a bound tracer by excess parental compound. Each tracer was analyzed for binding to each HiBiT-GPCR fusion in the absence and in the presence of competing parental compound. Briefly, HEK293 cells were transfected with HiBiT-GPCR constructs diluted into promoterless DNA to reduce expression and maximize translocation to the cell surface. Each tracer candidate was then screened at concentrations of 1 μM and 0.1 μM across cells expressing these fusions. Cells were treated for 1.5 h with tracer either alone or in the presence of 20 μM competing parental compound (i.e., control). BRET was measured upon addition of purified LgBiT and subsequent complementation with HiBiT genetically fused to a GPCR. The specificity of interactions was assessed through a decrease in BRET signal due to competitive displacement of the bound tracer. To further gauge the robustness of these interactions, the fold response over the control (i.e., BRETtracer/BRETcontrol) was calculated. We chose a 1.5-fold response, which translates to ≥7-fold signal over noise as the minimal threshold required to score an interaction as positive. […]. Below we highlight the screening results obtained for our exemplary fluorescent tracers based on Clozapine, Amitriptyline and AZD1283.
(§2) HiBiT-GPCR DNA constructs were diluted in 10 mM Tris pH 8 to a final concentration of 0.01 μg/μL, arrayed in 96-well plates and stored at −20 °C. For transfection, HEK293 cells were suspended in Opti-MEM (without phenol red) supplemented with 2% fetal bovine serum (Seradigm) and 100 units/mL penicillin–streptomycin (Gibco) at a final concentration of 220,000 cells/mL and dispensed into white 96-well plates at 90 μL/well. Subsequent transfections and screens were carried using an Agilent Bravo Automated Liquid Handling Platform. First, the 96-well HiBiT DNA arrays were diluted 25-fold in Opti-MEM (without serum or phenol red) to a final concentration of 0.0004 μg/μL and 20 μL of the diluted DNAs were transferred into new 96-well plates. Next, promoterless carrier DNA (1 μg/μL) was diluted 25-fold (0.04 μg/μL) and then dispensed into the diluted arrays at 20 μL/well. Following brief mixing, Viafect transfection reagent (Promega) diluted 16-fold into Opti-MEM was dispensed into the plates at 40 μL/well. After mixing by pipetting, plates were incubated for 10 min on the pipetting station deck. The DNA-transfection reagent complexes were then added to plates containing cells. To facilitate the screen, 10 μL of DNA-transfection reagent complexes were added in duplicates to the top 4 and bottom 4 rows, resulting in two identical 48-well arrays per plate. Plates with transfected cells were incubated for 18–20 h at 37 °C/5% CO2. A screen of each tracer across the entire library using two different concentrations requires duplicate plates of transfected cells. Depending on the number of tracers being screened, transfections can be scaled up using the same ratios. The next day, for each tracer, four 20× screening solutions in tracer dilution buffer (Promega) were prepared: two duplicates at final concentration of 20 μM and two duplicates at a final concentration of 2 μM. A competing unmodified compound was added to one of each duplicate at a final concentration of 400 μM. The four resulting solutions were diluted 4-fold in Opti-MEM without serum or phenol red to generate 5× solutions (5 µM and 0.5 µM tracer +/− 100 μM competing compound). To screen the library, a BioTek MultiFlo FX liquid dispenser was used to dispense 22.5 µL of tracer solution to the top 4 rows and 22.5 µL tracer + competing compound solution to the 4 bottom rows. Plates were briefly mixed on an orbital shaker and incubated for 1.5 h at room temperature. […]

T1 sequence (P47871 26-477): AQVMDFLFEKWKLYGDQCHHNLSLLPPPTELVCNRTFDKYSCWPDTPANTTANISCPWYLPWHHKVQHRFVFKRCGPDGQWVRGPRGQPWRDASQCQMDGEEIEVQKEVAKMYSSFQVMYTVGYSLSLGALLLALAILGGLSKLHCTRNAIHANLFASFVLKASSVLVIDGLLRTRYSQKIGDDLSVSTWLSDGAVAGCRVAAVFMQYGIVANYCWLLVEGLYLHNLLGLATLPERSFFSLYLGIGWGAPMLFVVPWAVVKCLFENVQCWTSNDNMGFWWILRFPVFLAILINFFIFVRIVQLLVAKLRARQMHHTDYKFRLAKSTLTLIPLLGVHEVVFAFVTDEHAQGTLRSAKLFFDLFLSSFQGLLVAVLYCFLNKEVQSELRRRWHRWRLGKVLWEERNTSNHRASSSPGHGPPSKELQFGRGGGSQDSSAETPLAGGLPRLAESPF

Which “NanoBRET Fold Response” value does the source give for `COc1ccc2[nH]c(-c3ccc(CNC(=O)CCOCCOCCOCCOCCNC(=O)CCc4ccc5n4[B-](F)(F)[N+]4=C(c6ccc[nH]6)C=CC4=C5)cc3)c(CCNC(C)=O)c2n1` [AzomelatoninICO9-2-NB590] here?
The value was 0.90.

With `COc1ccc2c(n1)c(CCNC(C)=O)cn2CCNC(=O)CCc1ccc2n1[B-](F)(F)[N+]1=C(c3ccc[nH]3)C=CC1=C2` [Azamelatonin-1-NB590] as the compound, how does the “NanoBRET Fold Response” value read?
The value was 1.01.

Same assay, conditions: 1μM tracer

With `COc1ccc2[nH]c(-c3ccc(CNC(=O)CCOCCOCCOCCOCCNC(=O)CCc4ccc5n4[B-](F)(F)[N+]4=C(c6ccc[nH]6)C=CC4=C5)cc3)c(CCNC(C)=O)c2n1` [AzomelatoninICO9-2-NB590] as the compound, how does the “NanoBRET Fold Response” value read?
Its value is 1.05.

Which “NanoBRET Fold Response” value does the source give for `COc1ccc2c(n1)c(CCNC(C)=O)cn2CCNC(=O)CCc1ccc2n1[B-](F)(F)[N+]1=C(c3ccc[nH]3)C=CC1=C2` [Azamelatonin-1-NB590] here?
The value was 1.10.

Same assay, conditions: GCGR; 0.1μM tracer

`CN1CCN(C2=Nc3cc(Cl)ccc3N(CC(=O)NCCOCCOCCOCCOCCNC(=O)CCc3ccc4n3[B-](F)(F)[N+]3=C(c5ccc[nH]5)C=CC3=C4)c3ccccc32)CC1` [Clozapine-c-2-NB590] was tested. Which “NanoBRET Fold Response” value did it give?
The value was 0.99.

Same assay, conditions: GCGR; 1μM tracer

`CN1CCN(C2=Nc3cc(Cl)ccc3N(CC(=O)NCCOCCOCCOCCOCCNC(=O)CCc3ccc4n3[B-](F)(F)[N+]3=C(c5ccc[nH]5)C=CC3=C4)c3ccccc32)CC1` [Clozapine-c-2-NB590] was tested. Which “NanoBRET Fold Response” value did it give?
Its value is 1.02.

Target: T2, PTGDR2 (Homo sapiens, UniProt Q9Y5Y4)
T2 construct: purchased Promega (in-house HiBiT-GPCR construct library, NanoBRET)
T2 sequence (Q9Y5Y4 1-395): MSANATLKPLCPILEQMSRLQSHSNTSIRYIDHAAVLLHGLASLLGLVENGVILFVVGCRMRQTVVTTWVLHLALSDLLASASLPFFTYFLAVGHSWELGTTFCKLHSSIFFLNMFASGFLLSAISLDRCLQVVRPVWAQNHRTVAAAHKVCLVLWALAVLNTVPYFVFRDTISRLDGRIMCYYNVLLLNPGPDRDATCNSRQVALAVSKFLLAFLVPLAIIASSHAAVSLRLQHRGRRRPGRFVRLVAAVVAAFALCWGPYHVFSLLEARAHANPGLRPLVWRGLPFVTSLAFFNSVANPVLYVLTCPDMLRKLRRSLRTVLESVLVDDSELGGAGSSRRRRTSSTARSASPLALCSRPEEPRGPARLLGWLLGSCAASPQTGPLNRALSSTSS
Assay: NanoBRET screen HiBiT-PTGDR2 in HEK293
Assay type: binding
Conditions: 0.1μM tracer
Method: as §1, §2

How did the “NanoBRET Fold Response” value turn out when `COc1ccc2[nH]c(-c3ccc(CNC(=O)CCOCCOCCOCCOCCNC(=O)CCc4ccc5n4[B-](F)(F)[N+]4=C(c6ccc[nH]6)C=CC4=C5)cc3)c(CCNC(C)=O)c2n1` [AzomelatoninICO9-2-NB590] was run?
Its value is 1.06.

`COc1ccc2c(n1)c(CCNC(C)=O)cn2CCNC(=O)CCc1ccc2n1[B-](F)(F)[N+]1=C(c3ccc[nH]3)C=CC1=C2` [Azamelatonin-1-NB590] was tested. Which “NanoBRET Fold Response” value did it give?
Its value is 1.08.

Same assay, conditions: 1μM tracer

With `COc1ccc2[nH]c(-c3ccc(CNC(=O)CCOCCOCCOCCOCCNC(=O)CCc4ccc5n4[B-](F)(F)[N+]4=C(c6ccc[nH]6)C=CC4=C5)cc3)c(CCNC(C)=O)c2n1` [AzomelatoninICO9-2-NB590] as the compound, how does the “NanoBRET Fold Response” value read?
Its value is 1.12.

How did the “NanoBRET Fold Response” value turn out when `COc1ccc2c(n1)c(CCNC(C)=O)cn2CCNC(=O)CCc1ccc2n1[B-](F)(F)[N+]1=C(c3ccc[nH]3)C=CC1=C2` [Azamelatonin-1-NB590] was run?
The value was 1.09.

Same assay, conditions: PTGDR2; 0.1μM tracer

Which “NanoBRET Fold Response” value does the source give for `CN1CCN(C2=Nc3cc(Cl)ccc3N(CC(=O)NCCOCCOCCOCCOCCNC(=O)CCc3ccc4n3[B-](F)(F)[N+]3=C(c5ccc[nH]5)C=CC3=C4)c3ccccc32)CC1` [Clozapine-c-2-NB590] here?
The value was 0.96.

Same assay, conditions: PTGDR2; 1μM tracer

`CN1CCN(C2=Nc3cc(Cl)ccc3N(CC(=O)NCCOCCOCCOCCOCCNC(=O)CCc3ccc4n3[B-](F)(F)[N+]3=C(c5ccc[nH]5)C=CC3=C4)c3ccccc32)CC1` [Clozapine-c-2-NB590] was tested. Which “NanoBRET Fold Response” value did it give?
Its value is 1.02.

Target: T3, F2RL2 (Homo sapiens, UniProt O00254)
T3 construct: purchased Promega (in-house HiBiT-GPCR construct library, NanoBRET)
T3 sequence (O00254 22-374): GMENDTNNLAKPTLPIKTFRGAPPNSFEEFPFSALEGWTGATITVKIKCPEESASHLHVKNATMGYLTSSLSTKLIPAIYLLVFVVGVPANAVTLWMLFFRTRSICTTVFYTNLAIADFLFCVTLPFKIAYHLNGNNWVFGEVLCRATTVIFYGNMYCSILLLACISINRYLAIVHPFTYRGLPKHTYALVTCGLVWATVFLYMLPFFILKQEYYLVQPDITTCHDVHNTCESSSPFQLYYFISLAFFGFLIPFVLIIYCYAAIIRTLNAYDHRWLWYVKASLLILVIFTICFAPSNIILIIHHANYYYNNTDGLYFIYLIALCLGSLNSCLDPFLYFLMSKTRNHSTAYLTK
Assay: NanoBRET screen HiBiT-F2RL2 in HEK293
Assay type: binding
Conditions: 0.1μM tracer
Method: as §1, §2

`COc1ccc2[nH]c(-c3ccc(CNC(=O)CCOCCOCCOCCOCCNC(=O)CCc4ccc5n4[B-](F)(F)[N+]4=C(c6ccc[nH]6)C=CC4=C5)cc3)c(CCNC(C)=O)c2n1` [AzomelatoninICO9-2-NB590] was tested. Which “NanoBRET Fold Response” value did it give?
Its value is 0.86.

Which “NanoBRET Fold Response” value does the source give for `COc1ccc2c(n1)c(CCNC(C)=O)cn2CCNC(=O)CCc1ccc2n1[B-](F)(F)[N+]1=C(c3ccc[nH]3)C=CC1=C2` [Azamelatonin-1-NB590] here?
Its value is 1.00.

Same assay, conditions: 1μM tracer

For `COc1ccc2[nH]c(-c3ccc(CNC(=O)CCOCCOCCOCCOCCNC(=O)CCc4ccc5n4[B-](F)(F)[N+]4=C(c6ccc[nH]6)C=CC4=C5)cc3)c(CCNC(C)=O)c2n1` [AzomelatoninICO9-2-NB590], which “NanoBRET Fold Response” value is on record?
The value was 0.99.

For `COc1ccc2c(n1)c(CCNC(C)=O)cn2CCNC(=O)CCc1ccc2n1[B-](F)(F)[N+]1=C(c3ccc[nH]3)C=CC1=C2` [Azamelatonin-1-NB590], which “NanoBRET Fold Response” value is on record?
Its value is 1.03.

Same assay, conditions: F2RL2; 0.1μM tracer

`CN1CCN(C2=Nc3cc(Cl)ccc3N(CC(=O)NCCOCCOCCOCCOCCNC(=O)CCc3ccc4n3[B-](F)(F)[N+]3=C(c5ccc[nH]5)C=CC3=C4)c3ccccc32)CC1` [Clozapine-c-2-NB590] was tested. Which “NanoBRET Fold Response” value did it give?
The value was 1.20.

Same assay, conditions: F2RL2; 1μM tracer

How did the “NanoBRET Fold Response” value turn out when `CN1CCN(C2=Nc3cc(Cl)ccc3N(CC(=O)NCCOCCOCCOCCOCCNC(=O)CCc3ccc4n3[B-](F)(F)[N+]3=C(c5ccc[nH]5)C=CC3=C4)c3ccccc32)CC1` [Clozapine-c-2-NB590] was run?
Its value is 0.97.
